What was measured:
House Fly = assay: Housefly (Stomach) Test; format: in vivo, Musca domestica (Diptera); settings: 24 h
Protocol: Ten chilled house flies are taken from the rearing cage and placed in a covered petri dish. Sugar cubes treated with 0.2 ml. of a formulation containing a specified level of the insecticide are placed in the petri dish one hour after the flies have been removed from the chill room. Controls consist of sugar cubes treated with 0.2 ml. of deionized water and cubes treated with 0.2 ml. of a formulation containing 500 ppm of malathion. Mortality counts are made 24 hours later. The same rating scale is used as before.

Aphids - Apple = assay: Field trial, stomach poison test; format: in vivo
Summary of the method: (§1)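 Spray (10 psi) or dip leaves from infested plants in test solution; air-dry; put in Petri dish; add 5 or 10 insects; score mortality 0–9 at 24/48/72 h. 1–2 reps, usually 2–3 rates.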

Aphids - Tulip Tree = assay: Field trial, stomach poison test; format: in vivo
Summary of the method: as §1

Meadow Spittlebug = assay: Field trial, stomach poison test; format: in vivo
Summary of the method: as §1

Aphids - Sour Gum = assay: Field trial, stomach poison test; format: in vivo
Summary of the method: as §1

Alfalfa Weevil Larvae = assay: Field trial, stomach poison test; format: in vivo
Summary of the method: as §1

**Q.** How did the mortality rating (House Fly; 50 ppm) turn out when O=[N+]([O-])c1cc(C(F)(F)F)cc2[nH]c(C(F)(F)Cl)nc12 [L, 2-chlorodifluoromethyl-4-nitro-6-trifluoromethylbenzimidazole] was run?
**A.** .5

**Q.** What about the average mortality rating (Aphids - Apple; 25 ppm) of the same molecule?
**A.** 1

**Q.** And the average mortality rating (Aphids - Apple; 50 ppm)?
**A.** 1

**Q.** And the average mortality rating (Aphids - Apple; 100 ppm)?
**A.** 4

**Q.** What about the average mortality rating (Aphids - Tulip Tree; 25 ppm) of the same molecule?
**A.** 1

**Q.** And the average mortality rating (Aphids - Tulip Tree; 50 ppm)?
**A.** 1

**Q.** And the average mortality rating (Aphids - Tulip Tree; 100 ppm)?
**A.** 5

**Q.** What about the average mortality rating (Meadow Spittlebug; 25 ppm) of the same molecule?
**A.** 0 (0-10 percent)

**Q.** What about the average mortality rating (Meadow Spittlebug; 50 ppm) of the same molecule?
**A.** 1

**Q.** What about the average mortality rating (Meadow Spittlebug; 100 ppm) of the same molecule?
**A.** 5

**Q.** What about the average mortality rating (Aphids - Sour Gum; 25 ppm) of the same molecule?
**A.** 7

**Q.** And the average mortality rating (Aphids - Sour Gum; 50 ppm)?
**A.** 7

**Q.** And the average mortality rating (Aphids - Sour Gum; 100 ppm)?
**A.** 9 (91-100 percent mortality)

**Q.** “mixture of N,N-dimethyl-4-nitro-2,6-bis(trifluoromethyl)thio-1-benzimidazolecarboxamide and N,N-dimethyl-7-nitro-2,5-bis(trifluoromethyl)thio-1-benzimidazolecarboxamide [P]” was tested. Which mortality rating (House Fly; 50 ppm) did it give?
**A.** 0 (0-10)

**Q.** And the mortality rating (House Fly; 100 ppm)?
**A.** 3 (31-40)

**Q.** What about the mortality rating (House Fly; 250 ppm) of the same molecule?
**A.** 7 (71-80)

**Q.** What about the mortality rating (House Fly; 500 ppm) of the same molecule?
**A.** 9 (91-100)

**Q.** How did the mortality rating (House Fly; 250 ppm) turn out when “mixture of benzyl 2,6-bis(trifluoromethyl)-4-nitro-1-benzimidazolecarboxylate and benzyl 2,5-bis(trifluoromethyl)-7-nitro-1-benzimidazolecarboxylate” was run?
**A.** 0 (0-10)

**Q.** And the mortality rating (House Fly; 500 ppm)?
**A.** 4 (41-50)

**Q.** What about the mortality rating (House Fly; 1000 ppm) of the same molecule?
**A.** 9 (91-100)

**Q.** And the average mortality rating (Alfalfa Weevil Larvae; 125 ppm)?
**A.** 3

**Q.** What about the average mortality rating (Alfalfa Weevil Larvae; 250 ppm) of the same molecule?
**A.** 5

**Q.** What about the average mortality rating (Alfalfa Weevil Larvae; 500 ppm) of the same molecule?
**A.** 6

**Q.** With “mixture of phenyl 2,6-bis(trifluoromethyl)-4-nitro-1-benzimidazolecarboxylate and phenyl 2,5-bis(trifluoromethyl)-1-benzimidazolecarboxylate” as the molecule, how does the mortality rating (House Fly; 100 ppm) read?
**A.** 0 (0-10)

**Q.** What about the mortality rating (House Fly; 1000 ppm) of the same molecule?
**A.** 9 (91-100)
